Laboratory results taken from patent US20030049284A1, “Method of increasing the solubility of alphahydrocarboxilic salts, and products obtained by the method” (priority 2001, published 2003).

Key:
[1] = Solubility in water (comparative data and examples); format: physicochemical; conditions: in 1 liter of water at 20-25° C.
[2] = water at 20° C.; literature value (index Merck Ref. 1675; F.C.C. IV Ed. Page 153); cited from earlier work

O=C([O-])[C@H](O)[C@@H](O)[C@H](O)[C@H](O)CO.O=C([O-])[C@H](O)[C@@H](O)[C@H](O)[C@H](O)CO.[Fe+2] [Fe(II) gluconate]
solubility, amount in 1 liter of water [1]: 85-100 gr. | solubility in water [2]: 100 gr/1000 ml
